Measurements reported in PubChem BioAssay (NCI).
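Following 48 hours of exposure in 96-well plates, responses at five concentrations were used to interpolate endpoints linearly. GI50 = concentration required for 50% inhibition of growth. TGI denotes the concentration required for complete inhibition of growth.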

Experiments:
Test in all cases: NCI tumour cell line growth inhibition, 48 h
MDA-N = system: MDA-N
DLD-1 colon = system: DLD-1 colon
DMS 114 small cell lung = system: DMS 114 small cell lung
LXFL 529 NSCLC = system: LXFL 529 NSCLC
M19-MEL melanoma = system: M19-MEL melanoma
SNB-78 CNS = system: SNB-78 CNS
XF 498 CNS = system: XF 498 CNS
HOP-18 NSCLC = system: HOP-18 NSCLC
RXF-631 renal = system: RXF-631 renal
P388 leukemia = system: P388 leukemia
SN12K1 renal = system: SN12K1 renal

| SMILES | TGI (MDA-N) [µM] | TGI (DLD-1 colon) [µM] | TGI (DMS 114 small cell lung) [µM] | TGI (LXFL 529 NSCLC) [µM] | TGI (M19-MEL melanoma) [µM] | TGI (SNB-78 CNS) [µM] | TGI (XF 498 CNS) [µM] | TGI (HOP-18 NSCLC) [µM] | other results |
| --- | --- | --- | --- | --- | --- | --- | --- | --- | --- |
| COS(C)(=O)=O | > 2 | – | – | – | – | – | – | – | – |
| CC1C=CC(C(N)C(=O)O)O1 (stereo unspecified) | – | > 100 | > 100 | > 100 | > 100 | > 100 | > 100 | – | – |
| CCOC(=O)c1[nH]c2cc(OC)c(OC)cc2c1CN(C)C | – | > 100 | > 100 | – | – | > 100 | – | – | – |
| CC(=O)Nc1ccc(S(=O)(=O)N=S(C)C)cc1 | > 100 | – | – | – | – | – | – | – | – |
| COc1cc([N+](=O)[O-])c(S(=O)(=O)O)cc1-n1nc(C(=O)Nc2ccccc2)n[n+]1-c1cc(S(=O)(=O)[O-])c([N+](=O)[O-])cc1OC | > 100 | – | – | – | – | – | – | – | – |
| O=C(CCC(=O)Nc1cccc(C(F)(F)F)c1)CC(=O)c1ccc2ccccc2c1 | – | > 100 | > 100 | > 100 | > 100 | > 100 | > 100 | > 100 | TGI (RXF-631 renal): > 100 µM |
| CC(=O)Nc1cc2cc(NS(=O)(=O)c3ccc(Cl)c(Cl)c3)ccc2oc1=O | > 100 | – | – | – | – | – | – | – | – |
| O=C(N/C(=C\c1ccccc1O)c1nc2ccccc2[nH]1)c1ccccc1 | – | – | > 100 | > 100 | > 100 | > 100 | > 100 | > 100 | – |
| O=C1C=C2CCCC2C(C(=O)O)(C(=O)O)C1 (stereo unspecified) | – | > 100 | > 100 | > 100 | > 100 | > 100 | > 100 | – | TGI (RXF-631 renal): > 100 µM |
| OC1CCCC2CCC[N-]C12.OC1CCCC2CCC[N-]C12.[O]=[V][OH] (stereo unspecified) | > 100 | – | – | – | – | – | – | – | GI50 (MDA-N): 5.86 µM |
| CC(C)COC1Sc2ccccc2S1 | – | 35.1 | 39.1 | 49.3 | – | 65.1 | – | 30.2 | – |
| NS(=O)(=O)c1ccc(NC(=O)C2C(=O)C(=O)N(c3ccc(S(N)(=O)=O)cc3)C2=O)cc1 (stereo unspecified) | – | > 100 | > 100 | > 100 | > 100 | > 100 | – | > 100 | TGI (RXF-631 renal): > 100 µM |
| COc1cc2c(c(OC)c1OC)-c1ccc(SC)c(=O)cc1[C@@H](NC(=O)C(F)(F)F)CC2 | < 0.01 | > 100 | – | > 100 | > 100 | – | 2.37 | > 100 | – |
| O=C1NC2(CCCCC2)C(=O)N1CCN(CCCl)CCCl | > 25 | > 250 | 248 | – | > 250 | > 245 | 39.6 | > 250 | TGI (P388 leukemia): 189 µM; TGI (SN12K1 renal): > 250 µM |
| N#C/C(=C1\OC(=N)C(c2ccccc2)C1=O)c1ccccc1 (stereo unspecified) | – | 39.1 | > 82.2 | 36.3 | 56.5 | > 100 | 46.2 | 92.3 | – |
| CCCCCCCCCCCCCCCC(=O)OCCOCCOCCOCCOCCOC(=O)CCCCCCCCCCCCCCC | – | > 100 | > 100 | > 100 | > 100 | > 100 | – | > 100 | TGI (RXF-631 renal): > 100 µM |
| O=C(CC1C(=O)Nc2ccccc2S1(=O)=O)Nc1ccc(Cl)cc1 (stereo unspecified) | – | > 100 | 55.7 | 78.2 | 61.9 | 93.8 | 30.5 | – | TGI (RXF-631 renal): > 100 µM |
| Cc1c2ccncc2c(C)c2c1sc1ccccc12 | 47.6 | – | – | – | – | – | – | – | – |

| SMILES | TGI (MDA-N) [µM] | TGI (DLD-1 colon) [µM] | TGI (DMS 114 small cell lung) [µM] | TGI (LXFL 529 NSCLC) [µM] | TGI (M19-MEL melanoma) [µM] | TGI (SNB-78 CNS) [µM] | TGI (XF 498 CNS) [µM] | TGI (HOP-18 NSCLC) [µM] | other results |
| --- | --- | --- | --- | --- | --- | --- | --- | --- | --- |
| C/C=C/C(=O)[O-].C/C=C/C(=O)[O-].N.N.N.N.[Co+3].[O-][Cl+3]([O-])([O-])[O-] | – | > 100 | – | > 100 | – | > 100 | – | – | GI50 (DLD-1 colon): > 100 µM; GI50 (LXFL 529 NSCLC): > 100 µM; GI50 (SNB-78 CNS): > 100 µM |
| Cc1ccc(-c2nc(-c3nccc4ccccc34)oc2-c2ccccc2)cc1 | > 100 | – | – | – | – | – | – | – | – |
| NC(Cc1c[nH]c2ccc([N+](=O)[O-])cc12)C(=O)O (stereo unspecified) | > 100 | – | – | – | – | – | – | – | – |
| C[N+](C)(C)c1cc[c]([Sn]([c]2ccc([N+](C)(C)C)cc2)([c]2ccc([N+](C)(C)C)cc2)[c]2ccc([N+](C)(C)C)cc2)cc1 | – | > 100 | > 100 | > 100 | > 100 | – | > 100 | > 100 | GI50 (DLD-1 colon): > 100 µM; GI50 (DMS 114 small cell lung): > 100 µM; GI50 (HOP-18 NSCLC): > 100 µM; GI50 (LXFL 529 NSCLC): > 100 µM; GI50 (M19-MEL melanoma): > 100 µM; GI50 (RXF-631 renal): > 100 µM; TGI (RXF-631 renal): > 100 µM; GI50 (XF 498 CNS): > 100 µM |
| CCCc1nc(Cl)c(Cl)c(Cl)n1 | > 100 | – | – | – | – | – | – | – | – |
| CC1=CP(=O)(c2ccccc2)C=C(C)C1=C(Cl)Cl (stereo unspecified) | – | 27.1 | 28.9 | 11.3 | 30.3 | 9.03 | 34.8 | 45.2 | – |
| COc1cc(/C=C(\NC(=O)c2ccccc2)c2nc3ncncc3[nH]2)cc(OC)c1OC | – | > 100 | – | > 100 | > 100 | > 100 | > 100 | – | TGI (RXF-631 renal): > 100 µM |
| O=C(Nc1ccccc1)OC1OC(COC(=O)c2ccccc2)C(OC(=O)c2ccccc2)C1OS(=O)(=O)c1ccc([N+](=O)[O-])cc1 (stereo unspecified) | > 100 | – | – | – | – | – | – | – | – |
| CCOC(=N)CC(=O)Nc1ccccc1 | – | > 46.4 | > 46.4 | > 46.4 | > 46.4 | > 46.4 | > 67 | > 31.6 | – |
| Cc1ccc(N=C2N=C(N3CC(C)OC(C)C3)c3ccccc32)cc1 (stereo unspecified) | – | > 100 | – | 57.6 | > 100 | > 100 | 64.5 | – | TGI (RXF-631 renal): > 100 µM |
| CCc1cc2c(O)c(c1)Cc1cc(CC)cc(c1O)Cc1cc(CC)cc(c1O)Cc1cc(CC)cc(c1O)Cc1cc(CC)cc(c1O)Cc1cc(CC)cc(c1O)Cc1cc(CC)cc(c1O)C2 | – | > 100 | > 100 | > 100 | > 100 | > 100 | > 100 | – | – |
| COc1ccc(/C=C/C(=O)c2c(-c3ccccc3)nn(C)c(=O)c2N2CCOCC2)cc1 | – | > 100 | > 100 | > 100 | > 100 | – | 83.9 | > 100 | TGI (RXF-631 renal): > 100 µM |
| O=C(N=c1nc(NC(=O)c2ccccc2)ss1)c1ccccc1 | – | – | 90.3 | – | > 100 | > 100 | – | – | – |
| O=C(Nc1ccc(Cl)cc1C(=O)O)c1ccc([N+](=O)[O-])cc1 | – | 30.9 | 36.8 | 48.7 | 55.9 | 67.2 | 90.1 | – | TGI (RXF-631 renal): > 100 µM |
| COc1ccc(O)cc1C(O)c1ccccc1 (stereo unspecified) | – | > 100 | > 100 | > 100 | > 100 | > 100 | > 100 | > 100 | – |
| COc1ccc2c(c1)CCc1cc(OC)ccc1/[N+]([O-])=[N+]\2[O-] | 29.8 | – | – | – | – | – | – | – | – |
| Cc1ccc(/C=C/C(=O)c2sc(-n3nc(-c4ccccc4)cc3-c3ccccc3)nc2C)cc1 | – | > 100 | > 100 | – | > 100 | > 100 | – | > 100 | – |
